What is called IC50 is the concentration needed to halve the response being measured. A low value points to greater potency in that assay.

From BindingDB's records for doi:10.1016/j.bmc.2010.05.071 (University of Innsbruck and Center For Molecular …, 2010) come the findings set out here.

For this experiment, the target named is Acetylcholinesterase (Electrophorus electricus, UniProt O42275). Nature of the experiment: Inhibition of electric eel AChE by Ellman's method. (In Ellman's method for cholinesterases, released thiocholine reacts with DTNB.)
Sequence of Acetylcholinesterase (O42275 whole entry): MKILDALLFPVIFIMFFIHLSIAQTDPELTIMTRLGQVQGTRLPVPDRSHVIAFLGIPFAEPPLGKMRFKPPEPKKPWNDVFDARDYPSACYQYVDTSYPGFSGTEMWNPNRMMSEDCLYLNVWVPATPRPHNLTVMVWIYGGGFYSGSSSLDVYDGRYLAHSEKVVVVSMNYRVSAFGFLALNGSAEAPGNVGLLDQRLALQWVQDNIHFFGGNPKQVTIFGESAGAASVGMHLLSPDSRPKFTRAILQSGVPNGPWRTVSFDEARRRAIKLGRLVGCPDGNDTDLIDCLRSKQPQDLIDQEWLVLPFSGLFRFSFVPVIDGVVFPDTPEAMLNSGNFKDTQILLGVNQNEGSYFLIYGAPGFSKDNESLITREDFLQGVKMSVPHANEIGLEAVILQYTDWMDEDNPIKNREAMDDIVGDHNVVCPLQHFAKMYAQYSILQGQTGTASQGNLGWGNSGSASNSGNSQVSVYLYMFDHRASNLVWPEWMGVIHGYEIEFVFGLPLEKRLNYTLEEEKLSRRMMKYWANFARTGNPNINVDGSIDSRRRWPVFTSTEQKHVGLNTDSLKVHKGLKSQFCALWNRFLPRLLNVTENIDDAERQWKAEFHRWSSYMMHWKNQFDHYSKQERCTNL

In turn, `O=CN1CC[C@]23CC(=O)CC[C@H]2[C@H]1Cc1c(O)ccc(O)c13` returned an IC50 of 12.7 µM.
